Assay results published in patent US6410751B1, “Water soluble tri-substituted 1, 2-dioxetane compounds having increased storage stability, synthetic processes and intermediates” (Lumigen, Inc., priority 1995, dated 2002).
Like-named read-outs stand apart in the source and are kept apart here. Each block holds one molecule with its values, some of them ahead of it.

What was measured:
[1] = Enhancement of luminescent signal of a reagent based on dioxetane 1 by enhancers and fluorescers; conditions: for Factor of increase of luminescent signal: reagent based on dioxetane 1; for Enhancement Factor: 1 mg/mL Enhancer A
Source text: As part of the optimization of a reagent based on dioxetane 1, a number of enhancer materials was examined. At pH 9.6, Enhancer A (1-trioctylphosphoniummethyl-4-tributylphosphoniummethylbenzene dichloride) increased the luminescent signal by a factor of 6.2, and Enhancer B (poly(vinylbenzyltributylphosphonium chloride)) increased the signal by a factor of 19.7. At pH 10.0, Enhancer A increased the signal by a factor of 4.8, and Enhancer B increased the signal by a factor of 18.9.
Tables 2 and 3 show the extent of enhancement by pyranine and fluorescein, respectively, in the presence of 1 mg/mL of Enhancer A.

[2] = Reagent carryover in capsule chemistry analysis system (TECHNICON IMMUNO 1 TSH method, luminescence detection); conditions: R3 reagent with 0.2 mM CSPD; 3 mM pyranine omitted from test N only
Experimental: The experiments described below were performed on a prototype capsule chemistry analysis system essentially as described by Kumar et al in U.S. Pat. No. 5,399,497, with the detection system configured to measure light emission (luminescence). The method and apparatus comprises feeding a stream of fluid segments through a Teflon tube, where the tube has an isolating layer of fluorocarbon oil on the inner surface. Sample and reagents are aspirated into this tube, and the resulting liquid segments are moved through the tube. […] The detection system was comprised of a photon counter and a fiber optic read head, in which the fibers were radially arranged around the Teflon tube to maximize the efficiency of light collection.
The TECHNICON IMMUNO 1® TSH method (Bayer Corporation, Tarrytown, N.Y., USA) was used as a representative immunoassay method for the testing of luminogenic reagents. […] The particles were then exposed to the luminogenic reagent, which contained a substrate for ALP, and luminescence was measured.
R1 (10.4 μl of serum-based solution containing fluorescein-labeled antibody to TSH), R2 (10.4 μl of serum-based solution containing antibody to TSH conjugated with ALP) and S (7.2 μl of serum sample) were aspirated into the second segment. […] The fifth segment was R3, of the composition described above, with the key elements being the luminogenic substrate and the luminescence enhancer. […]

[3] = Storage stability of dioxetane formulations measured by chemiluminescent enzyme assay; format: physicochemical; conditions: for % of Dioxetane Remaining: 0.5 mM dioxetane formulation pH 10, temperature not given (FIG. 5: 25° C.)
Source text: Storage stability is related to the rate of decomposition of the dioxetane due to spontaneous reaction and is an intrinsic property. Decomposition of triggerable dioxetanes can also be induced by the presence of trace quantities of agents which catalyze the removal of a protecting group and thus initiate the decomposition. Storage stability of a dioxetane can be assessed by measuring the quantity of dioxetane present in a known sample at periodic intervals. The measurement can take any form known which measures a property relatable to the quantity of dioxetane. Techniques such as spectrophotometry, NMR spectrometry and the like are exemplary. A convenient means is to measure the amount of light produced by reacting a known quantity of dioxetane with a triggering agent under a standard set of conditions. A decrease in the amount or intensity of light emitted signals a loss of dioxetane compound.
A fluoro-substituted analog of dioxetane 1, identified as 3, a chloro-substituted analog 4 and a methyl-substituted analog 5 have been prepared and their storage stability evaluated over several weeks. Storage stability of a solution of 1 was measured for comparison. All solutions were prepared with the same composition, differing only in the identity of the dioxetane. Stability was evaluated by chemiluminescent enzyme assay with a fixed volume of test solution and fixed limiting amount of alkaline phosphatase and measuring the plateau light intensity at 25° C.
Formulations comprising 0.1 mg/mL Enhancer A, 0.88 mM Mg^+2 , 0.2 M 2-amino-2-methyl-1-propanol, pH 10, 0.1% Triton X-100 and 0.5 mM dioxetane 1, 3, 4 and 5, respectively, were prepared and stored in opaque polyethylene bottles at 4° C., 25° C. and 40° C. Twenty four 100 μL aliquots from each bottle were pipetted into the wells of a 96 well plate and the solutions incubated at 37° C. Into each well 10 μL solutions containing 8×10^−17 moles of AP were injected and light intensity integrated over five hours. Data are the average of all 24 wells. The experiment was repeated at the indicated time intervals for each dioxetane. The results in FIG. 5 show the comparative stability of the three formulations at 25° C.

[4] = tested on: alkaline phosphatase; assay: Performance of detection reagent in assays for AP in the capsule chemistry test system; format: biochemical; conditions: fluorescein-labeled alkaline phosphatase conjugate captured onto magnetic particles
Experimental: The experiments described below were performed on a prototype capsule chemistry analysis system essentially as described by Kumar et al in U.S. Pat. No. 5,399,497, with the detection system configured to measure light emission (luminescence). The method and apparatus comprises feeding a stream of fluid segments through a Teflon tube, where the tube has an isolating layer of fluorocarbon oil on the inner surface. Sample and reagents are aspirated into this tube, and the resulting liquid segments are moved through the tube. Separation steps and washing steps which are required by heterogeneous immunoassay methods were facilitated by means of magnets, which transferred magnetic particles from one aqueous segment to another. The detection system was comprised of a photon counter and a fiber optic read head, in which the fibers were radially arranged around the Teflon tube to maximize the efficiency of light collection.
A detection reagent incorporating dioxetane 3 was evaluated in a test system as described in Example 7. The test material was a fluorescein-labeled alkaline phosphatase conjugate which was captured onto the magnetic particles.

[5] = aqueous solutions, 25° C., four weeks

Molecule: CCCCCCCC[P+](CCCCCCCC)(CCCCCCCC)Cc1ccc(C[P+](CCCC)(CCCC)CCCC)cc1.[Cl-].[Cl-] [Enhancer A, 1-trioctylphosphoniummethyl-4-tributylphosphoniummethylbenzene dichloride]
Factor of increase of luminescent signal ([1]; pH 9.6): 6.2
Factor of increase of luminescent signal ([1]; pH 10.0): 4.8

Molecule: O=S(=O)([O-])c1cc(O)c2ccc3c(S(=O)(=O)[O-])cc(S(=O)(=O)[O-])c4ccc1c2c34.[Na+].[Na+].[Na+] [Pyranine]
Factor by which signal in test N was lower when the fluorescent enhancer was omitted [2]: approximately 10
Enhancement Factor ([1]; 0.01 mM fluorescer): 3.7
Enhancement Factor ([1]; 0.02 mM fluorescer): 7.3
Enhancement Factor ([1]; 0.03 mM fluorescer): 9.8
Enhancement Factor ([1]; 0.04 mM fluorescer): 12.2
Enhancement Factor ([1]; 0.05 mM fluorescer): 13.7
Enhancement by fluorescer alone ([1]; fluorescer 3 mM, without Enhancer A): about ten-fold

Storage stability compared with other dioxetanes (in words) [3]: worse than that of 1
Molecule: [4-(3,3-biscarboxy)-3-chloropropoxy)-4-(3-phosphoryloxyphenyl)]spiro[1,2-dioxetane-3,2′-tricyclo [3.3.1.1^3,7]decane], tetrasodium salt [Dioxetane 4]

Molecule: O=C([O-])C(CCOC1(c2cccc(OP(=O)([O-])[O-])c2)OOC12C1CC3CC(C1)CC2C3)C(=O)[O-].[Na+].[Na+].[Na+].[Na+] (centres unmarked) [Dioxetane 1]
% of Dioxetane Remaining ([3]; 0 wks): 100%
% of Dioxetane Remaining ([3]; 1 wk): 94.8%
% of Dioxetane Remaining ([3]; 2 wks): 91.1%
% of Dioxetane Remaining ([3]; 3 wks): 87.5%
% of Dioxetane Remaining ([3]; 4 wks): 84.1%
% of Dioxetane Remaining ([3]; 5 wks): 81.8%
% of Dioxetane Remaining ([3]; 6 wks): 80.7%
% of Dioxetane Remaining ([3]; 9 wks): 76.5%
Decomposition on storage (in words) ([3]; alkaline buffer, 25° C., two weeks): significant decomposition
Storage stability compared with other dioxetanes (in words) ([3]; aqueous buffer solutions, 25° C.): significantly less stable than a related compound, Lumigen PPD

Molecule: [4-(3,3-biscarboxybutoxy)-4-(3-phosphoryloxyphenyl)]spiro[1,2-dioxetane-3,2′-tricyclo[3.3.1.1^3,7]-decane], tetrasodium salt [Dioxetane 5]
Decomposition on storage (in words) [3, 5]: essentially no decomposition

Molecule: [4-(3,3-biscarboxy)-3-fluoropropoxy)-4-(3-phosphoryloxyphenyl)]spiro[1,2-dioxetane-3,2′-tricyclo [3.3.1.1^3,7]decane], tetrasodium salt [Dioxetane 3]
Assay performance (sensitivity, dynamic range, precision) in words [4]: sensitivity, dynamic range and precision comparable to the results using dioxetane 1
Decomposition on storage (in words) [3, 5]: essentially no decomposition
